Results from patent US7291629B2, “Neurotrophin antagonist compositions” (Painceptor Pharma Corporation, priority 1996, dated 2007).

The compounds below were run on p75 and trkA receptors (assay: Binding of [125I]NGF to PC12 cells in the presence and absence of BDNF). Conditions: 100 uM compound, 0.5 nM 125I-NGF.
Protocol: The ability of the compounds of Formula I to antagonize NGF interaction with the p75 and trkA receptors was determined as follows.
NGF was labelled using the Lactoperoxidase labelling method (Sutter et al., J. Biol. Chem., 1979) and the labelled NGF was separated from radiolabelling agents and free iodide using a PD-10 Sephadex G-25 column.
PC12 cells were grown in RPMI with 10% heat inactivated donor horse serum and 5% fetal calf serum. Cells were harvested for binding by washing off the media with calcium-magnesium free balanced salt solution (Gey's solution) and incubated in 5 ml Gey's solution at 37° C. for 15 minutes. Cells were pelleted by centrifugation and suspended in Hepes-Krebs Ringer buffer (HKR) (10 mM Hepes pH7.35, containing 125 mM NaCl, 4.8 mM KCl, 1.3 mM CaCl2, 1.2 mM MgSO4, 1.2 mM KH2PO4, 1 mg/ml BSA and 1.0 mg/ml glucose) at a concentration of 4×10^6/ml and kept on ice. (C) NGF Binding The reaction was performed in a 96 well plate. Suspended cells (150 ul, […]) were added to ^125I-NGF (final concentration of 0.5 nM) and the competing compound of Formual I in a final volume of 300 ul of HKR buffer. The plates were incubated with shaking for 2 hr at 4° C. At the end of the incubation, 100 ul aliquots of the reaction sample were added to 400 ul microcentrifuge tubes containing 200 ul of 10% glycerol in HKR buffer. The tubes were centrifuged for 1 minute at ˜5000 rpm and the tip containing the cell pellet was cut off. Radioactivity bound to the cells was determined by measuring the ^125I-NGF associated with each pellet in a gamma counter. Specific binding is calculated as the difference between the amount of ^125I-NGF bound in the absence (total) and presence (NSB) of 50 nM unlabeled NGF. TrkA binding is determined similarly except 10 nM BDNF is added to all reactions. Table 1 summarizes the values obtained from this experiment for the inhibition of binding of NGF to P75 and TrkA by compounds of Formula I.
In the case of “3-Amino-7,4-bis(ethyl-1,3-dioxo-1,2,3,4-tetrahydrobenzo[i]isoquinoline”, the “% Inhibition at 100 uM” value is reported as 23%.
With “3-Methyl-3-(1,3-dioxo-5-nitro(1H,3H)benz[de]isoquinolyl)butyric acid methylester” the “% Inhibition at 100 uM” value was 17%.
In the case of `Cc1ccc(S(=O)(=O)Nc2cc(C)c(C)cc2N2C(=O)CC3C=CC=C4C=CC=CC43C2=O)cc1` (stereo not drawn) [1,3-Dioxo-2-[4,5-dimethyl-2-(4-methylphenylsulphonamido)phenyl]-1,2,3,4-tetrahydrobenzo[i]isoquinoline], the “% Inhibition at 100 uM” value is reported as 19%.
For `O=C1c2cccc3cc([N+](=O)[O-])cc(c23)C(=O)N1CCc1ccccn1` [1,3-Dioxo-5-nitro-N-(pyrid-2-ylethyl)-1,2,3,4-tetrahydro[i]isoquinoline], the “% Inhibition at 100 uM” value was 28%.
`O=C1c2cccc3cc([N+](=O)[O-])cc(c23)C(=O)N1CCCN1CCOCC1` [1,3-Dioxo-5-nitro-n-propylmorpholino-1,2,3,4-tetrahydrobenzo[i]isoquinoline] was tested, and the “% Inhibition at 100 uM” value was 11%.
For `O=C1CC2C=C(Sc3ccccc3)C=C3C=CC=CC32C(=O)N1CCc1ccccn1` (stereo not drawn) [1,3-Dioxo-6-phenylmercapto-N-(pyrid-2-ylethyl)-1,2,3,4-tetrahydro-benzo[i]isoquinoline], the “% Inhibition at 100 uM” value was 33%.
`O=C1c2cccc3cc([N+](=O)[O-])cc(c23)C(=O)N1CC1CCCO1` (stereo not drawn) [1,3-Dioxo-N-methyltetrahydrofurfur-2-yl-5-nitro-1,2,3,4-tetrahydro[i]isoquinoline] was tested, and the “% Inhibition at 100 uM” value was 18%.
For `Nc1ccccc1N1C(=O)c2cccc3cccc(c23)C1=O` [2-(2-Aminophenyl)naphthalimide], the “% Inhibition at 100 uM” value was 20%.
With `O=C1c2cccc3cccc(c23)C(=O)N1c1ccccc1O` [2-(2-Hydroxyphenyl)naphthalimide] the “% Inhibition at 100 uM” value was 13%.
For `O=C1CC2C=CC=C3C=CC=CC32C(=O)N1c1nc2ccccc2[nH]1` (stereo not drawn) [2-(Benzimidaz-2-yl)-1,3-dioxo-1,2,3,4-tetrahydrobenzo[i]isoquinoline], the “% Inhibition at 100 uM” value was 23%.
With `Cc1ccc(S(=O)(=O)Nc2cc(Cl)c(Cl)cc2N2C(=O)c3cccc4cccc(c34)C2=O)cc1` [2-[2-(4-Methylbenzsulphonamido)-4,5-dichlorophenyl]naphthalimide] the “% Inhibition at 100 uM” value was 26%.
`Cc1ccc(S(=O)(=O)Nc2ccccc2N2C(=O)c3cccc4c(N(C)C)ccc(c34)C2=O)cc1` [2-{2-(4-methylphenylsulphonamido)phenyl}-6-(N,N-dimethylamino)-naphthalimide] was tested, and the “% Inhibition at 100 uM” value was 29%.
`O=C(O)CCN1C(=O)c2cccc3cc([N+](=O)[O-])cc(c23)C1=O` [3-Nitro-1,8-(N-propioncarboxylate)succinamidonapthalene] was tested, and the “% Inhibition at 100 uM” value was 25%.
With `CCCCN1C(=O)c2cccc3cc(N)cc(c23)C1=O` [5-Amino-N-butylnaphthalimide] the “% Inhibition at 100 uM” value was 13%.
`O=C1c2cccc3cc(Br)cc(c23)C(=O)N1Cc1cccnc1` [5-Bromo-1,3-dioxo-N-methylpyrid-3-yl-1,2,3,4-tetrahydrobenzo[i]isoquinoline] was tested, and the “% Inhibition at 100 uM” value was 28%.
In the case of `CN(C)c1ccc2c3c(cccc13)C(=O)N(c1nc3ccccc3[nH]1)C2=O` [6-(N,N-Dimethylamino)-2-(benzimidazol-2-yl)naphthalimide], the “% Inhibition at 100 uM” value is reported as 36%.
`O=C1c2cccc3c([N+](=O)[O-])ccc(c23)C(=O)N1Cc1ccco1` [6-Nitro-2-(furfuryl)naphthalimide] was tested, and the “% Inhibition at 100 uM” value was 17%.
In the case of `O=C1c2cccc3c([N+](=O)[O-])ccc(c23)C(=O)N1CCc1ccccn1` [6-Nitro-2-(pyrid-2-ylethyl)naphthalimide], the “% Inhibition at 100 uM” value is reported as 11%.
`O=C1c2cccc3c([N+](=O)[O-])ccc(c23)C(=O)N1Cc1cccnc1` [6-Nitro-2-(pyrid-3-methyl)naphthalimide] was tested, and the “% Inhibition at 100 uM” value was 23%.
With `O=C1c2cccc3c([N+](=O)[O-])ccc(c23)C(=O)N1CC1CCCO1` (stereo not drawn) [6-Nitro-2-(tetrahydrofuran-2-ylmethyl)naphthalimide] the “% Inhibition at 100 uM” value was 28%.
`CCOC(=O)CN1C(=O)c2cccc3cc([N+](=O)[O-])cc(c23)C1=O` [Ethyl-5-nitro-1,3-dioxo-1H-benz[de]isoquinoline-2-3H-acetate] was tested, and the “% Inhibition at 100 uM” value was 16%.
`O=C1c2cccc3cccc(c23)C(=O)N1CCO` [N-(1,3-Dioxo-1,2,3,4-tetrahydrobenzo[i]isoquinoline)aminoethanol] was tested, and the “% Inhibition at 100 uM” value was 27%.
In the case of `O=C1c2cccc3cc([N+](=O)[O-])cc(c23)C(=O)N1CCO` [N-(1,3-Dioxo-5-nitro-1,2,3,4-tetrahydrobenzo[i]isoquinoline)-aminoethanol], the “% Inhibition at 100 uM” value is reported as 44%.
In the case of `O=C(O)CN1C(=O)c2cccc3cc([N+](=O)[O-])cc(c23)C1=O` [N-(1,3-Dioxo-5-nitro-1,2,3,4-tetrahydrobenzo[i]isoquinoline)acetic acid], the “% Inhibition at 100 uM” value is reported as 58%.
For `O=C1c2cccc3c(Sc4ccccc4)ccc(c23)C(=O)N1CCO` [N-(1,3-Dioxo-6-phenylmercapto-1,2,3,4-tetrahydrobenzo[i]isoquinoline)aminoethanol], the “% Inhibition at 100 uM” value was 3%.
For `Cc1cc(C)cc(N2C(=O)c3cccc4cccc(c34)C2=O)c1` [N-(3,5-Dimethylphenyl)-1,8-naphthalimide], the “% Inhibition at 100 uM” value was 9%.
`CCOc1ccc(N2C(=O)c3cccc4cc([N+](=O)[O-])cc(c34)C2=O)cc1` [N-(4-Ethoxyphenyl)-5-nitronaphthalimide] was tested, and the “% Inhibition at 100 uM” value was 18%.
For `O=C1c2cccc3cccc(c23)C(=O)N1CCc1ccccn1` [N-(Pyrid-2-ylethyl)-1,8-naphthalimide], the “% Inhibition at 100 uM” value was 35%.
For `O=C1c2cccc3cccc(c23)C(=O)N1Cc1ccccn1` [N-(Pyrid-2-ylmethyl)naphthalimide], the “% Inhibition at 100 uM” value was 10%.
`O=C1c2cccc3cccc(c23)C(=O)N1Nc1ccccc1` [N-Anilino-1,8-naphthalimide] was tested, and the “% Inhibition at 100 uM” value was 1%.
`O=C1c2cccc3cccc(c23)C(=O)N1Cc1ccco1` [N-Furfuryl-1,8-naphthalimide] was tested, and the “% Inhibition at 100 uM” value was 36%.
For `CN1C(=O)c2cccc3cccc(c23)C1=O` [N-Methylnaphthalimide], the “% Inhibition at 100 uM” value was 11%.
For `CCCCCCCCN1C(=O)c2cccc3cc([N+](=O)[O-])cc(c23)C1=O` [N-Octyl-5-nitronaphthalimide], the “% Inhibition at 100 uM” value was 29%.
In the case of `NN1C(=O)c2cccc3cccc(c23)C1=O` [Naphthalicacid-N-aminoimide], the “% Inhibition at 100 uM” value is reported as 27%.
In the case of Naphthalicacid-N,N′-diimide, the “% Inhibition at 100 uM” value is reported as 13%.

The compounds below were run on L5/L6 Nerve Ligated rats (assay: Tactile allodynia, nerve ligation injury model (von Frey paw withdrawal threshold)). Conditions: i.p.
For `CN1CC[C@]23c4c5ccc(O)c4O[C@H]2[C@@H](O)C=C[C@H]3[C@H]1C5` [Morphine, morphine, reference compound], the “A50(95% C.L.) Allodynia- Ligated” value was 7.1 mg/kg.

Same assay, conditions: i.th
For `CN1CC[C@]23c4c5ccc(O)c4O[C@H]2[C@@H](O)C=C[C@H]3[C@H]1C5` [Morphine, morphine, reference compound], the “A50(95% C.L.) Allodynia- Ligated” value was greater than 100 µg.

These compounds were tested on L5/L6 Nerve Ligated and Sham-Operated Rats (assay: not given). Conditions: i.th; L5/L6 nerve ligated rats.
For `CN1CC[C@]23c4c5ccc(O)c4O[C@H]2[C@@H](O)C=C[C@H]3[C@H]1C5` [Morphine, morphine, reference compound], the “A50(95% C.L.) Tail Flick- Ligated” value was 2.3 µg.

Same assay, conditions: i.th; sham-operated rats
With `CN1CC[C@]23c4c5ccc(O)c4O[C@H]2[C@@H](O)C=C[C@H]3[C@H]1C5` [Morphine, morphine, reference compound] the “A50(95% C.L.) Tail Flick- Sham” value was 1.45 µg.
